Data reported in patent US7862807B2, “Dendrimers as molecular translocators” (University of California, San Diego, priority 2002, dated 2011).

Key:
HeLa S3 cells = test: Sulphorhodamine B (SRB) cytotoxicity assay; assay type: cell-based, human; conditions: 4 hour treatment, concentrations up to 50 μM
Method: The cells were treated with varying concentrations (250 nM to 50 μM) of compound 12 for 4 hours at 37° C. The cells were fixed with trichloroacetic acid and were then subsequently stained with SRB dye. The cells were washed with water, and the SRB-bound complexes were solubilized in Tris buffer. The absorbance at 572 nm was measured in each sample.

[1] = test system: HeLa S3 human epithelioid cervical carcinoma cells; test: Cellular uptake of fluorescein-labeled dendrimers quantified by flow cytometry (FACS); assay type: cell-based; conditions: for delivery to HeLa S3 cells (in words): 250 nM to 50 μM; for Percentage of Cellular Uptake: 4 hours, 37° C., average of two experiments; for saturation of uptake reached with increasing concentration: concentration increased up to 50 μM
Method: HeLa S3, human epithelioid cervical carcinoma cells of approximately 50% confluency were treated with concentrations varying from 250 nM to 50 μM of each of the molecular transporters 10, 11, 12, 13, and 41 at 37° C. The molecular transporters were directly added to the media (Dulbecco's modified eagle medium containing 10% fetal bovine serum and 1× antibiotic-antimycotic), and the delivery to the cells was visualized by microscopy.
Quantification of the uptake of the molecular transporter into the cells was performed by flow cytometry 4 hours after treatment. Adherent cells, grown on 6 well plates, were displaced with trypsin, after which the cells were washed with phosphate-buffered saline (PBS). The final cell pellet was collected by centrifugation and resuspended in PBS to a concentration of approximately 1×10^6 cells/mL. A minimum of 20,000 cell events were counted and analyzed using the FACSCalibur and CellQuest brand software (BD Biosciences, San Jose, Calif.).

[2] = Solubility in H2O noted on isolation; assay type: physicochemical; conditions: isolated salt

Cl.Cl.Cl.Cl.Cl.Cl.Cl.Cl.Cl.N=C(N)NCCNC(=O)CCOCC(COCCC(=O)NCCNC(=N)N)(COCCC(=O)NCCNC(=N)N)NC(=O)CCNC(=O)CCOCC(COCCC(=O)NCCC(=O)NC(COCCC(=O)NCCNC(=N)N)(COCCC(=O)NCCNC(=N)N)COCCC(=O)NCCNC(=N)N)(COCCC(=O)NCCC(=O)NC(COCCC(=O)NCCNC(=N)N)(COCCC(=O)NCCNC(=N)N)COCCC(=O)NCCNC(=N)N)NC(=O)CCNC(=S)Nc1ccc(-c2c3ccc(=O)cc-3oc3cc(O)ccc23)c(C(=O)O)c1 (stereo not shown) [Compound 12]
cytotoxic effect / cell lysis (HeLa S3 cells): no cytotoxic effect and did not cause cell lysis | delivery to HeLa S3 cells (in words) [1]: excellent delivery | Percentage of Cellular Uptake ([1]; 250 nM): 9.07% | Percentage of Cellular Uptake ([1]; 500 nM): 8.71% | Percentage of Cellular Uptake ([1]; 1 μM): 9.17% | Percentage of Cellular Uptake ([1]; 5 μM): 63.52% | Percentage of Cellular Uptake ([1]; 10 μM): 91.74% | Percentage of Cellular Uptake ([1]; 25 μM): 98.61% | Percentage of Cellular Uptake ([1]; 50 μM): 99.75% | saturation of uptake reached with increasing concentration [1]: approximately 100%

N=C(N)NCCNC(=O)CCCCCNC(=O)CCNC(=S)Nc1ccc(-c2c3ccc(=O)cc-3oc3cc(O)ccc23)c(C(=O)O)c1 [Compound 41, 5-(3-{2-[5-(2-Guanidinoethylcarbamoyl)-pentylcarbamoyl]-ethyl}-thioureido)-2-(6-hydroxy-3-oxo-3H-xanthen-9-yl)-benzoic acid]
saturation of uptake reached with increasing concentration [1]: approximately 100%

Cl.Cl.Cl.Cl.Cl.Cl.Cl.Cl.Cl.Cl.Cl.Cl.N=C(N)NCCNC(=O)CCOCC(COCCC(=O)NCCNC(=N)N)(COCCC(=O)NCCNC(=N)N)NC(=O)CCNC(=O)CCOCC(COCCC(=O)NCCC(=O)NC(COCCC(=O)NCCNC(=N)N)(COCCC(=O)NCCNC(=N)N)COCCC(=O)NCCNC(=N)N)NC(=O)CCNC(=O)CCOCC(COCCC(=O)NCCC(=O)NC(COCCC(=O)NCCC(=O)NC(COCCC(=O)NCCNC(=N)N)(COCCC(=O)NCCNC(=N)N)COCCC(=O)NCCNC(=N)N)COCCC(=O)NCCC(=O)NC(COCCC(=O)NCCNC(=N)N)(COCCC(=O)NCCNC(=N)N)COCCC(=O)NCCNC(=N)N)NC(=O)CCNC(=S)Nc1ccc(-c2c3ccc(=O)cc-3oc3cc(O)ccc23)c(C(=O)O)c1 (stereo not shown) [Compound 13]
solubility in H2O [2]: barely soluble in H2O | delivery to HeLa S3 cells (in words) [1]: excellent delivery | Percentage of Cellular Uptake ([1]; 250 nM): 3.22% | Percentage of Cellular Uptake ([1]; 500 nM): 6.59% | Percentage of Cellular Uptake ([1]; 1 μM): 11.91% | Percentage of Cellular Uptake ([1]; 5 μM): 90.79% | Percentage of Cellular Uptake ([1]; 10 μM): 96.77% | Percentage of Cellular Uptake ([1]; 25 μM): 99.11% | Percentage of Cellular Uptake ([1]; 50 μM): 99.82% | saturation of uptake reached with increasing concentration [1]: approximately 100%

Cl.Cl.Cl.N=C(N)NCCNC(=O)CCOCC(COCCC(=O)NCCNC(=N)N)(COCCC(=O)NCCNC(=N)N)NC(=O)CCNC(=S)Nc1ccc(-c2c3ccc(=O)cc-3oc3cc(O)ccc23)c(C(=O)O)c1 (stereo not shown) [Compound 10]
saturation of uptake reached with increasing concentration [1]: approximately 100%

Cl.Cl.Cl.Cl.Cl.Cl.N=C(N)NCCNC(=O)CCOCC(COCCC(=O)NCCNC(=N)N)(COCCC(=O)NCCNC(=N)N)NC(=O)CCNC(=O)c1cc(C(=O)NCCNC(=O)CCNC(=S)Nc2ccc(-c3c4ccc(=O)cc-4oc4cc(O)ccc34)c(C(=O)O)c2)cc(C(=O)NCCC(=O)NC(COCCC(=O)NCCNC(=N)N)(COCCC(=O)NCCNC(=N)N)COCCC(=O)NCCNC(=N)N)c1 (stereo not shown) [Compound 11]
delivery to HeLa S3 cells (in words) [1]: excellent delivery | Percentage of Cellular Uptake ([1]; 250 nM): 4.56% | Percentage of Cellular Uptake ([1]; 500 nM): 7.52% | Percentage of Cellular Uptake ([1]; 1 μM): 11.74% | Percentage of Cellular Uptake ([1]; 5 μM): 94.54% | Percentage of Cellular Uptake ([1]; 10 μM): 98.55% | Percentage of Cellular Uptake ([1]; 25 μM): 99.79% | Percentage of Cellular Uptake ([1]; 50 μM): 99.87% | saturation of uptake reached with increasing concentration [1]: approximately 100%
